System: childhood ALL patients with adverse cytogenetics harboring t(9; 22)
Experiment: Kaplan-Meier survival of childhood ALL patients by cytogenetic risk group
Type: in vivo, human
Details: five of the six cases with adverse cytogenetics
Description: One hundred and seventy-three patients diagnosed with ALL and younger than 18 years were recruited from Sant Joan de Déu Hospital, Barcelona, Spain and from Cruces Hospital, Barakaldo, Spain between 1996 and 2012. Patients were all from Caucasian descent. […] Samples were extracted when patients were at complete remission or without cytogenetic aberrations affecting chromosomes where the polymorphisms are located. Clinical data were collected at diagnosis, including sex, age, leukemia type (T-cell, B-cell or mixed), WBC count, cytogenetic risk group and treatment protocol (Table 1). The different cytogenetic risk groups were classified according to the criteria from the Spanish Society of Pediatric Hematology and Oncology as follow: Presence of t(9; 22), t(4; 11) or MLL rearrangements at 11q23, or hipodiploidy (<44 chromosomes) was considered adverse group. Presence of 412; 21) or hiperdiploidy (>50 chromosomes) was considered favorable and all other cases were considered to belong to intermediate cytogenetic risk group. […] Every genotype was analyzed separately and moreover, in case of CNVs, null genotypes were tested vs. non-null genotypes, and in case of SNPs, heterozygotes were grouped together with either homozygote genotype.

For Cc1ccc(NC(=O)c2ccc(CN3CCN(C)CC3)cc2)cc1Nc1nccc(-c2cccnc2)n1 [imatinib], the treatment outcome was “successful”.

From patent publication US20210139993A1, “METHOD FOR PREDICTING SURVIVAL IN CHILDREN WITH ACUTE LYMPHOBLASTIC LEUKEMIA” (UNIVERSITAT AUTONOMA DE BARCELONA, priority 2017, published 2021)
